# In patent US12209145B2, “PCSK9 antagonist compounds” (Merck Sharp & Dohme LLC, priority 2018, dated 2025):
# How the values were obtained:
# [1] = molecular target: T1, PCSK9 (Homo sapiens, UniProt Q8NBP7); assay: PCSK9 Alexa FRET Plus TR-FRET assay (displacement of AlexaFluor647 tagged cyclic peptide Reagent B); format: binding; conditions: 0.5 nM biotinylated PCSK9, 960 nM AF cyclic peptide Reagent B, Ki calculated from IC50 and KD of AF peptide
# T1 construct: Biotinylated PCSK9 was obtained commercially; purchased
# T1 sequence (Q8NBP7 153-692): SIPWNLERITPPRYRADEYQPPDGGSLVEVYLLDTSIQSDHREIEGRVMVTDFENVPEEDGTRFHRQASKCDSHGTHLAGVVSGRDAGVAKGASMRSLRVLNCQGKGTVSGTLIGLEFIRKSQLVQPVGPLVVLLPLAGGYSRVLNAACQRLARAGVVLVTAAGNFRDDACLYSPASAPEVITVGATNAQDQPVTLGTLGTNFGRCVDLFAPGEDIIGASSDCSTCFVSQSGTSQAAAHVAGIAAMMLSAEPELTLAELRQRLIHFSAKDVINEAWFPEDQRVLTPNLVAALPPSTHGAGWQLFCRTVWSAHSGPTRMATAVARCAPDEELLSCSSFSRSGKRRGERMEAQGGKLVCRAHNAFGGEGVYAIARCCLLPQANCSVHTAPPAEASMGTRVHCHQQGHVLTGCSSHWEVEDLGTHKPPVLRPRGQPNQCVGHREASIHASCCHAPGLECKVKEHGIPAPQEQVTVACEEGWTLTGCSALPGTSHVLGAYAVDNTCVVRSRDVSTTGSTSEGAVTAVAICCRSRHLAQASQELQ
# Protocol: (§1) The following is a description of the assays used to determine activity of compounds of the invention, and any comparator compounds reported, toward PCSK9 antagonism. Biotinylated PCSK9 was obtained commercially.
# A solution containing 1 nM biotinylated PCSK9+2.5 nM Lance Streptavidin Europium (Strep-Eu) is made in 50 mM HEPES pH 7.4, 0.15 M NaCl, 5 mM CaCl2, 0.01% BSA, and 0.01% Surfactant P20. A separate solution containing 1920 nM of the AlexaFluor tagged cyclic peptide is made in the same buffer system. An Echo is used to transfer 0.075 ul of compound plus 0.675 ul of DMSO to each well of an assay plate followed by the addition of 15 ul of PCSK9+Stept-Eu and 15 ul of AF peptide. The final assay volume is 30.750 ul containing 0.5 nM PCSK9, 1.25 nM Strep-Eu, and 960 nM AF cyclic peptide. The reaction is incubated at room temperature for at least two hours prior to fluorescence measurements using an Envision Multilabel Reader. IC50 values are determined by fitting data to a sigmoidal dose-response curve using nonlinear regression. Ki is then calculated from the IC50 and the KD of AF cyclic peptide. Counts (B-counts) of the europium-labeled PCSK9 are followed to observe if compounds are adversely affecting PCSK9. A fall off of the B-counts is likely indicates a false positive of inhibition. Data from this procedure is reported as “P=‘numerical value’ (nanomolar)”
# Activity data obtained by one or both of the above-described procedures is reported for selected example compounds of the invention in the following format: Example No.: A (standard TR Fret)=‘numerical value’; P (Alexa Fret plus standard TR Fret)=‘numerical value’/, note that all values reported are nanomolar.
# [2] = molecular target: T1, PCSK9; assay: PCSK9 Alexa FRET Ultra TR-FRET assay (displacement of AlexaFluor647 tagged cyclic peptide); format: binding; conditions: 0.5 nM biotinylated PCSK9, 960 nM AF cyclic peptide, Ki calculated from IC50 and KD of AF peptide
# Protocol: as §1
# A solution containing 1 nM biotinylated PCSK9+2.5 nM Lance Streptavidin Europium (Strep-Eu) is made in 50 mM HEPES pH 7.4, 0.15 M NaCl, 5 mM CaCl2, 0.01% BSA, and 0.01% Surfactant P20. A separate solution containing 1920 nM of the AlexaFluor tagged cyclic peptide is made in the same buffer system. An Echo is used to transfer 0.015 ul of compound plus 0.735 ul of DMSO to each well of an assay plate followed by the addition of 15 ul of PCSK9+Stept-Eu and 15 ul of AF peptide. The final assay volume is 30.750 ul containing 0.5 nM PCSK9, 1.25 nM Strep-Eu, and 960 nM AF cyclic peptide. The reaction is incubated at room temperature for at least two hours prior to fluorescence measurements using an Envision Multilabel Reader. IC50 values are determined by fitting data to a sigmoidal dose-response curve using nonlinear regression. Ki is then calculated from the IC50 and the KD of AF cyclic peptide. Counts (B-counts) of the europium-labeled PCSK9 are followed to observe if compounds are adversely affecting PCSK9. A fall off of the B-counts is likely indicates a false positive of inhibition. Data from this procedure is reported as “Ki Ultra=‘numerical value’ (data reported is nanomolar)”
Ki ([1]; read-out: Ki Plus) [nM],Ki ([2]; read-out: Ki Ultra) [nM],SMILES,Ki ([1]; Ki Plus) [nM],Ki ([2]; Ki Ultra) [nM]
0.00962,0.033,COc1ccc(C[C@@H]2NC(=O)[C@H]([C@@H](C)O)NC(=O)[C@@H]3[C@@H]4CCN3C(=O)[C@@H]3Cc5cn(c6ccc(F)cc56)C/C=C/CCCN(Cc5ccc(cc5)CCNC(=O)[C@]5(C)CCCN5C2=O)C(=O)CCC(=O)N[C@@H](CNC(=O)CCOCCOCC[N+](C)(C)C)C(=O)N[C@H](C)C(=O)N[C@@H](Cc2cccc(c2)CNC(=O)CO4)C(=O)N3)cc1 [Ex-05],,
0.0433,0.207,COc1ccc(C[C@@H]2NC(=O)[C@H]([C@@H](C)O)NC(=O)[C@@H]3[C@@H]4CCN3C(=O)[C@@H]3Cc5cn(c6ccc(F)cc56)Cc5cn(nn5)C[C@@H](NC(=O)CCC(=O)N[C@@H](CNC(=O)CCOCCOCC[N+](C)(C)C)C(=O)N[C@H](C)C(=O)N[C@@H](Cc5cccc(c5)CNC(=O)CO4)C(=O)N3)c3ccc(cc3)CCNC(=O)[C@]3(C)CCCN3C2=O)cc1 [Ex-11],,
0.145,0.477,COc1ccc(C[C@@H]2NC(=O)[C@H]([C@@H](C)O)NC(=O)[C@@H]3[C@@H]4CCN3C(=O)[C@@H]3Cc5cn(c6ccc(F)cc56)Cc5cn(nn5)CCN(Cc5ccc(cc5)CCNC(=O)[C@]5(C)CCCN5C2=O)C(=O)CCC(=O)N[C@@H](CNC(=O)CCOCCOCC[N+](C)(C)C)C(=O)N[C@H](C)C(=O)N[C@@H](Cc2cccc(c2)CNC(=O)CO4)C(=O)N3)cc1 [Ex-13],,
0.016,0.021,COc1ccc(C[C@@H]2NC(=O)[C@H]([C@@H](C)O)NC(=O)[C@@H]3[C@@H]4CCN3C(=O)[C@@H]3Cc5cn(c6ccc(F)cc56)Cc5cn(nn5)CCN(Cc5ccc(cc5)CCNC(=O)[C@]5(C)CCCN5C2=O)C(=O)CCC(=O)N[C@@H](C)C(=O)N[C@H](CNC(=O)CCOCCOCC[N+](C)(C)C)C(=O)N[C@@H](Cc2cccc(c2)CNC(=O)CO4)C(=O)N3)cc1 [Ex-14],,
0.103,0.26,COc1ccc(C[C@@H]2NC(=O)[C@H]([C@@H](C)O)NC(=O)[C@@H]3[C@@H]4CCN3C(=O)[C@@H]3Cc5cn(c6ccc(F)cc56)Cc5cn(nn5)CCN(Cc5ccc(cc5)CCNC(=O)[C@]5(C)CCCN5C2=O)C(=O)CCCC(=O)N[C@@H](CNC(=O)CCOCCOCC[N+](C)(C)C)C(=O)N[C@H](C)C(=O)N[C@@H](Cc2cccc(c2)CNC(=O)CO4)C(=O)N3)cc1 [Ex-15],,
0.0142,0.0514,COc1ccc(C[C@@H]2NC(=O)[C@H]([C@@H](C)O)NC(=O)[C@@H]3[C@@H]4CCN3C(=O)[C@@H]3Cc5cn(c6ccc(F)cc56)Cc5cn(nn5)CCN(Cc5ccc(cc5)CCNC(=O)[C@]5(C)CCCN5C2=O)C(=O)CCCCCC(=O)N[C@H](CNC(=O)CCOCCOCC[N+](C)(C)C)C(=O)N[C@@H](Cc2cccc(c2)CNC(=O)CO4)C(=O)N3)cc1 [Ex-16],,
≤ 0.00558,,COc1ccc(C[C@@H]2NC(=O)[C@H]([C@@H](C)O)NC(=O)[C@@H]3[C@@H]4CCN3C(=O)[C@@H]3Cc5cn(c6ccc(F)cc56)CCCCN(Cc5ccc(cc5)CCNC(=O)[C@]5(C)CCCN5C2=O)C(=O)CCC(=O)N[C@@H](C)C(=O)N[C@H](CNC(=O)CCOCCOCC[N+](C)(C)C)C(=O)N[C@@H](Cc2cccc(c2)CNC(=O)CO4)C(=O)N3)cc1 [Ex-28],,

# Second part, the compound before the results:
SMILES,Ki ([1]; read-out: Ki Plus) [nM],Ki ([2]; read-out: Ki Ultra) [nM],Ki ([1]; Ki Plus) [nM],Ki ([2]; Ki Ultra) [nM]
COc1ccc(C[C@@H]2NC(=O)[C@H]([C@@H](C)O)NC(=O)[C@@H]3[C@@H]4CCN3C(=O)[C@@H]3Cc5cn(c6ccc(F)cc56)CCCCCCN(Cc5ccc(cc5)CCNC(=O)[C@]5(C)CCCN5C2=O)C(=O)CCC(=O)N[C@@H](CCCC[N+](C)(C)C)C(=O)N[C@H](CNC(=O)CCOCCOCC[N+](C)(C)C)C(=O)N[C@@H](Cc2cccc(c2)CNC(=O)CO4)C(=O)N3)cc1 (stereo in doubt) [Ex-24],,,0.00812,0.00767
COc1ccc(C[C@@H]2NC(=O)[C@H]([C@@H](C)O)NC(=O)[C@@H]3[C@@H]4CCN3C(=O)[C@@H]3Cc5cn(c6ccc(F)cc56)CCCCCCN(Cc5ccc(cc5)CCNC(=O)[C@]5(C)CCCN5C2=O)C(=O)CCC(=O)N[C@@H](C)C(=O)N[C@H](CN)C(=O)N[C@@H](Cc2cccc(c2)CNC(=O)CO4)C(=O)N3)cc1 [Ex-01],,,< 0.00558,0.0046
COc1ccc(C[C@@H]2NC(=O)[C@H]([C@@H](C)O)NC(=O)[C@@H]3[C@@H]4CCN3C(=O)[C@@H]3Cc5cn(c6ccc(F)cc56)C/C=C\CCCN(Cc5ccc(cc5)CCNC(=O)[C@]5(C)CCCN5C2=O)C(=O)CCC(=O)N[C@@H](CNC(=O)CCOCCOCC[N+](C)(C)C)C(=O)N[C@H](C)C(=O)N[C@@H](Cc2cccc(c2)CNC(=O)CO4)C(=O)N3)cc1 [Ex-04],≤ 0.00558,0.00471,,
COc1ccc(C[C@@H]2NC(=O)[C@H]([C@@H](C)O)NC(=O)[C@@H]3[C@@H]4CCN3C(=O)[C@@H]3Cc5cn(c6ccc(F)cc56)C/C=C/CCCN(Cc5ccc(cc5)CCNC(=O)[C@]5(C)CCCN5C2=O)C(=O)CCC(=O)N[C@@H](C)C(=O)N[C@H](CNC(=O)CCCCC[N+](C)(C)C)C(=O)N[C@@H](Cc2cccc(c2)CNC(=O)CO4)C(=O)N3)cc1 [Ex-06],0.00568,0.00342,,
COc1ccc(C[C@@H]2NC(=O)[C@H]([C@@H](C)O)NC(=O)[C@@H]3[C@@H]4CCN3C(=O)[C@@H]3Cc5cn(c6ccc(F)cc56)C/C=C/CCCN(Cc5ccc(cc5)CCNC(=O)[C@]5(C)CCCN5C2=O)C(=O)CCC(=O)N[C@H]2CN(C(=O)CCOCCOCC[N+](C)(C)C)CCCCC(=O)NC[C@@H](NC2=O)C(=O)N[C@@H](Cc2cccc(c2)CNC(=O)CO4)C(=O)N3)cc1 [Ex-07],0.0591,0.0675,,
COc1ccc(C[C@@H]2NC(=O)[C@H]([C@@H](C)O)NC(=O)[C@@H]3[C@@H]4CCN3C(=O)[C@@H]3Cc5cn(c6ccc(F)cc56)Cc5cn(nn5)Cc5cc(ccc5CNC(=O)CCC(=O)N[C@@H](C)C(=O)N[C@H](CNC(=O)CCOCCOCC[N+](C)(C)C)C(=O)N[C@@H](Cc5cccc(c5)CNC(=O)CO4)C(=O)N3)CCNC(=O)[C@]3(C)CCCN3C2=O)cc1 [Ex-08],0.0157,0.0683,,
COc1ccc(C[C@@H]2NC(=O)[C@H]([C@@H](C)O)NC(=O)[C@@H]3[C@@H]4CCN3C(=O)[C@@H]3Cc5cn(c6ccc(F)cc56)Cc5cn(nn5)Cc5cc(ccc5CNC(=O)CCC(=O)N[C@@H](C)C(=O)N[C@H](CNC(=O)CCOCCOCC[N+](C)(C)C)C(=O)N[C@@H](Cc5cccc(c5)CNC(=O)CO4)C(=O)N3)CCNC(=O)[C@]3(C)CCCN3C2=O)cc1 [Ex-09],,,0.0919,0.247
COc1ccc(C[C@@H]2NC(=O)[C@H]([C@@H](C)O)NC(=O)[C@@H]3[C@@H]4CCN3C(=O)[C@@H]3Cc5cn(c6ccc(F)cc56)Cc5cn(nn5)C[C@@H](NC(=O)CCC(=O)N[C@@H](C)C(=O)N[C@H](CNC(=O)CCOCCOCC[N+](C)(C)C)C(=O)N[C@@H](Cc5cccc(c5)CNC(=O)CO4)C(=O)N3)c3ccc(cc3)CCNC(=O)[C@]3(C)CCCN3C2=O)cc1 [Ex-10],0.00574,0.0249,,
COc1ccc(C[C@@H]2NC(=O)[C@H]([C@@H](C)O)NC(=O)[C@@H]3[C@@H]4CCN3C(=O)[C@@H]3Cc5cn(c6ccc(F)cc56)Cc5cn(nn5)CC(NC(=O)CCCCCC(=O)N[C@H](CNC(=O)CCOCCOCC[N+](C)(C)C)C(=O)N[C@@H](Cc5cccc(c5)CNC(=O)CO4)C(=O)N3)c3ccc(cc3)CCNC(=O)[C@]3(C)CCCN3C2=O)cc1 [Ex-12],0.0145,0.0225,,
COc1ccc(C[C@@H]2NC(=O)[C@H]([C@@H](C)O)NC(=O)[C@@H]3[C@@H]4CCN3C(=O)[C@@H]3Cc5cn(c6ccc(F)cc56)CCCCCCN(Cc5ccc(cc5)CCNC(=O)[C@]5(C)CCCN5C2=O)C(=O)CCC(=O)N[C@@H](C)C(=O)N[C@H](CNC(=O)CCOCC[N+](C)(C)C)C(=O)N[C@@H](Cc2cccc(c2)CNC(=O)CO4)C(=O)N3)cc1 [Ex-31],,,< 0.00558,
